Results on 33 compounds are retold here after patent US10035771B2 (priority 2013, dated 2018).

The structures appear in SMILES notation.

The target of assay [1] is type B botulinum toxin light chain (BoNT/B-LC) (Clostridium botulinum, UniProt P10844). The assay is described as follows: biochemical. The conditions noted are these: for inhibition at 100 µg/mL: read-out: Inhibition rate %.
Assay [2] has as its target tetanus toxin light chain (TeNt-LC) (Clostridium tetani, UniProt P04958). The assay is described as follows: biochemical. The settings on record: for inhibition at 200 µg/mL: read-out: Inhibition rate %.
The target of assay [3] is type A botulinum toxin light chain (BoNT/A-LC) (Clostridium botulinum, UniProt P0DPI1). The assay is described as follows: biochemical. The conditions noted are these: for inhibition at 100 µg/mL: read-out: Inhibition rate %.
Assay [4] concerns the target type E botulinum toxin light chain (BoNT/E-LC) (Clostridium botulinum, UniProt Q00496). The assay is described as follows: biochemical. The settings on record: for inhibition at 100 µg/mL: read-out: Inhibition rate %.
The target of another assay is BoNT/F-LC (Clostridium botulinum, UniProt A7GBG3). The assay is described as follows: biochemical. The conditions noted are these: for inhibition at 100 µg/mL: read-out: Inhibition rate %.
For assay [5], the target named is type A botulinum toxin (BoNT/A) (Clostridium botulinum, UniProt P0DPI1). Set-up: species or system Balb/c mice. The conditions noted are these: mouse, in vivo, ip.
In assay [6] the target is type B botulinum toxin (BoNT/B) (Clostridium botulinum, UniProt P10844). Also on record: species or system Balb/c mice. The conditions noted are these: mouse, in vivo, ip.
Chain of type B botulinum toxin (BoNT/B) (P10844 2-441 limits assumed): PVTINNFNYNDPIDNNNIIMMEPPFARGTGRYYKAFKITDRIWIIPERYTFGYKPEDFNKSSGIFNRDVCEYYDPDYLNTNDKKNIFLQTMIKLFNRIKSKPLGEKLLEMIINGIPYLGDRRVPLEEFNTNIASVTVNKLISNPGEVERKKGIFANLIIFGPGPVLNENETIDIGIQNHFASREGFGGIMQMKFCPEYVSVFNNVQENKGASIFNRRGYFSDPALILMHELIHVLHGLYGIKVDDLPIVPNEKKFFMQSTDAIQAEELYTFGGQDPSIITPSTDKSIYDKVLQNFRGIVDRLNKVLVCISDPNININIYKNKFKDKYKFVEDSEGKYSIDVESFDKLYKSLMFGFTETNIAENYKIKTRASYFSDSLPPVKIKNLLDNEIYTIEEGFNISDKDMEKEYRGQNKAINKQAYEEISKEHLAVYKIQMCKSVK
Chain of type B botulinum toxin (BoNT/B) (P10844 442-1291 limits assumed): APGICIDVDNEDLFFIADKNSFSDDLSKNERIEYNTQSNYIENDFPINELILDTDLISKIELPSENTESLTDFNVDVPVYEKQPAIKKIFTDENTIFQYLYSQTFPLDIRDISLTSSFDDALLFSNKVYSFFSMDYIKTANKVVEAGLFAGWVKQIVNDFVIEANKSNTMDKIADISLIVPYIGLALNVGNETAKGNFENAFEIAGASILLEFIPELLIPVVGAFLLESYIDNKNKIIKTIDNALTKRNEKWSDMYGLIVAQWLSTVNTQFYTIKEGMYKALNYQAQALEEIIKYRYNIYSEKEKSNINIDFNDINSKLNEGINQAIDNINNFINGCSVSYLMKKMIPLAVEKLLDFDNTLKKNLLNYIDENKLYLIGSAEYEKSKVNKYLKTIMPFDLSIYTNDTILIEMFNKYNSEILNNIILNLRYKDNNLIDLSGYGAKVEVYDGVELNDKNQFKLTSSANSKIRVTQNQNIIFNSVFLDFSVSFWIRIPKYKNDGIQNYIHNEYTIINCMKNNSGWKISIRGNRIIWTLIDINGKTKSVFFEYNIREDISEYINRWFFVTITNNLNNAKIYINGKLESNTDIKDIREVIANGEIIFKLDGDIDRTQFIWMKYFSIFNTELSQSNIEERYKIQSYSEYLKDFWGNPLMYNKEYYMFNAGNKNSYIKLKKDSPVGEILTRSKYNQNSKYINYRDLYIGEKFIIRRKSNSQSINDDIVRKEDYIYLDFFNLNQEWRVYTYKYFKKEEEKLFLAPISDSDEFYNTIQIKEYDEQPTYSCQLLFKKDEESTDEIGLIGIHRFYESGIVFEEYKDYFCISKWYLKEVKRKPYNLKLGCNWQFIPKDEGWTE

Chain of type A botulinum toxin light chain (BoNT/A-LC) (P0DPI1 2-448 limits assumed): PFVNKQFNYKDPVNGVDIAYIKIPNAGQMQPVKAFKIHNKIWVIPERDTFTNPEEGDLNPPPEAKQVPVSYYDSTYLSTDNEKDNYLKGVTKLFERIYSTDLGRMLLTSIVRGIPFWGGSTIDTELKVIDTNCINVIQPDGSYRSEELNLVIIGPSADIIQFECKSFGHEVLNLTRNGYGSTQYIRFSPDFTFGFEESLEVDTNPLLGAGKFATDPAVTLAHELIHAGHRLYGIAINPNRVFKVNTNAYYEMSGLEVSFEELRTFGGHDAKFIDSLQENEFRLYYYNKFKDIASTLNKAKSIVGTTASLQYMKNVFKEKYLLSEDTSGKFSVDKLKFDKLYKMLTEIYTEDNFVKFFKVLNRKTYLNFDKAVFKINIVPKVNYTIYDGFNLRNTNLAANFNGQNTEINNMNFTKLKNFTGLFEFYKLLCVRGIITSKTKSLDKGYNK
Chain of type A botulinum toxin (BoNT/A) (P0DPI1 2-448 limits assumed): as above
Chain of type A botulinum toxin (BoNT/A) (P0DPI1 449-1296 limits assumed): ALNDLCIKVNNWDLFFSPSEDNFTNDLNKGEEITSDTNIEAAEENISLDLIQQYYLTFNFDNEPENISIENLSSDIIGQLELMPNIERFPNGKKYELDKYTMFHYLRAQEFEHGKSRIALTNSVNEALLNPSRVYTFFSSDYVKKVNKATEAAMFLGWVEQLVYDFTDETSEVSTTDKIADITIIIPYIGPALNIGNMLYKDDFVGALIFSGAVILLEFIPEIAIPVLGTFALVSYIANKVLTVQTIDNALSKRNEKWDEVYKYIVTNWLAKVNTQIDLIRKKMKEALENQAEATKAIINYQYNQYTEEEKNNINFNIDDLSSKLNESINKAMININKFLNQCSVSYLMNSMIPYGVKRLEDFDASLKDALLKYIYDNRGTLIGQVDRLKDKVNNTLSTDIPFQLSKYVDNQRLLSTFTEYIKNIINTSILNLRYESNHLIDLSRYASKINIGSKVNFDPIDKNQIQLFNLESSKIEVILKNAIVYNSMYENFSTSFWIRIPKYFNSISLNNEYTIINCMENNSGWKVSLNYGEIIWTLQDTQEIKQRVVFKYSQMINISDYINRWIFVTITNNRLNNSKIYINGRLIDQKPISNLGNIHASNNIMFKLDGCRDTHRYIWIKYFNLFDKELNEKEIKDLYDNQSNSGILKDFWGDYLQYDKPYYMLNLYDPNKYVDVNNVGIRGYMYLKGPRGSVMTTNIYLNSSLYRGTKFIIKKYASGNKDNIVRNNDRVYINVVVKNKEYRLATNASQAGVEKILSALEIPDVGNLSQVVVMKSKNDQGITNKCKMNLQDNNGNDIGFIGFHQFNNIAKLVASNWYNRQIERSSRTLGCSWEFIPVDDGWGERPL
Chain of type B botulinum toxin light chain (BoNT/B-LC) (P10844 2-441 limits assumed): as the sequence (P10844 2-441 limits assumed) above
Chain of BoNT/F-LC (A7GBG3 1-436 limits assumed): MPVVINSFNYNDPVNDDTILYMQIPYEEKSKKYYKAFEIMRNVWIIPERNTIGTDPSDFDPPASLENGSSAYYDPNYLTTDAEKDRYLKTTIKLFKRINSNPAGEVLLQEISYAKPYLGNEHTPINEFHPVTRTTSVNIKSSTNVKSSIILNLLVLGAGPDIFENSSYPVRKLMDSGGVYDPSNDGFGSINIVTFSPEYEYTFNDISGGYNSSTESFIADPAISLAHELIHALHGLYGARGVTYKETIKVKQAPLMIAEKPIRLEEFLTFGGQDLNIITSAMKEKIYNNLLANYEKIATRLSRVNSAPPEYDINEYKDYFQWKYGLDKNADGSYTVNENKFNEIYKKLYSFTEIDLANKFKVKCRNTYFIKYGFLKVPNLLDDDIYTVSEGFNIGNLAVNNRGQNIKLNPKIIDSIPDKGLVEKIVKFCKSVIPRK
Chain of tetanus toxin light chain (TeNt-LC) (P04958 2-457 limits assumed): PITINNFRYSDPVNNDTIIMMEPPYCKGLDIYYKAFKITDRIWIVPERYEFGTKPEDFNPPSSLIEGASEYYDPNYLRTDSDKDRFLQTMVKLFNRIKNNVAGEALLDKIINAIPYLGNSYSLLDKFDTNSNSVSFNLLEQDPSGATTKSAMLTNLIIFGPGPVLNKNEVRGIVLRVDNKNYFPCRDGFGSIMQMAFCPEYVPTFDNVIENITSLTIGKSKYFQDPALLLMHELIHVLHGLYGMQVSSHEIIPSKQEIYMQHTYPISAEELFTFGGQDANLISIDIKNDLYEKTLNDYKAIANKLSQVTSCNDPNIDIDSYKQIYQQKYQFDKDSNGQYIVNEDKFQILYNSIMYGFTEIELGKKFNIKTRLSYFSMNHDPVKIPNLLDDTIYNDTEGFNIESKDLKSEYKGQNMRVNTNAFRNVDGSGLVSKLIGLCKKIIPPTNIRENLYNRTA
Chain of type E botulinum toxin light chain (BoNT/E-LC) (Q00496 2-422 limits assumed): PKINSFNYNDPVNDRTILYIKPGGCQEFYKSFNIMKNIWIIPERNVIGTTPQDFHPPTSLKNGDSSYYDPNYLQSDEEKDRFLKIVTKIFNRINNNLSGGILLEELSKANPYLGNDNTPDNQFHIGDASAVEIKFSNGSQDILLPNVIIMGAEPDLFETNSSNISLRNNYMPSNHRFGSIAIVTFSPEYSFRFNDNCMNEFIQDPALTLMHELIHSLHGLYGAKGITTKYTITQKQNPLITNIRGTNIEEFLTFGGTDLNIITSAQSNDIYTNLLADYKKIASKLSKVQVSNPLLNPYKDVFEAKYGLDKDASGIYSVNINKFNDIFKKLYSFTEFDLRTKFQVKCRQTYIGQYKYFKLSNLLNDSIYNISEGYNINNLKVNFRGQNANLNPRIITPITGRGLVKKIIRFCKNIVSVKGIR

Take `COc1ccc(Cl)cc1NC(=O)CSc1ncccc1C(=O)O` [Example 2]: the inhibition at 100 µg/mL in assay [1] was found to be 20.5%; in assay [3], 12.1%; in assay [4] it was 11.6%; on BoNT/F-LC, 13.2%. Further, the inhibition at 200 µg/mL in assay [2] was found to be 12.3%.

`COc1ccc(F)cc1NC(=O)CSc1ncccc1C(=O)O` [Example 13, potassium]: the inhibition at 100 µg/mL is 22% in assay [1], 20.3% in assay [3], 18.3% in assay [4] and 16.4% on BoNT/F-LC. Also, the inhibition at 200 µg/mL in assay [2] came to 14.6%.

As to `COc1ccc(Cl)c(NC(=O)CSc2ncccc2C(=O)[O-])c1.[K+]` [Example 14], the “% survival” value in assay [5] was found to be 20%.

For `O=C(CSc1ncccc1C(=O)[O-])Nc1ccccc1OC(F)(F)F.[K+]` [Example 24], the “% survival” value in assay [6] worked out at 80%.

In the case of `CCCOc1ccc(Cl)cc1NC(=O)CSc1ncccc1C(=O)O` [Example 7], the inhibition at 100 µg/mL was 24.2% in assay [1], 18.1% in assay [3], 14% in assay [4] and 11.3% on BoNT/F-LC. Besides, in assay [2], the inhibition at 200 µg/mL was 20%.

As to `O=C(CSc1ncccc1C(=O)[O-])Nc1ccc(OC(F)(F)F)cc1.[K+]` [Example 21, potassium], the inhibition at 100 µg/mL in assay [1] came out at 28%; in assay [3], 14.3%; in assay [4], 20.3%; at BoNT/F-LC, 16.5%. Moreover, the inhibition at 200 µg/mL in assay [2] stood at 17.4%.

On to `O=C(CSc1ncccc1C(=O)O)Nc1ccc(F)cc1` [Example 19, potassium], for which the inhibition at 100 µg/mL in assay [1] is 3%; in assay [3] it was 3%; in assay [4], 6.8%; at BoNT/F-LC it was 4%. Also, in assay [2], the inhibition at 200 µg/mL is 2.7%.

Regarding `O=C(CSc1ncccc1C(=O)[O-])Nc1cccc(Cl)c1.[K+]` [Example 20, potassium], the inhibition at 100 µg/mL turned out to be 41% in assay [1], 6.8% in assay [3], 4.2% in assay [4] and 17.8% on BoNT/F-LC. Moreover, the inhibition at 200 µg/mL in assay [2] was found to be 22.2%.

For `COc1ccc(Cl)cc1NC(=O)CSc1cc(C(=O)[O-])ccn1.[K+]` [Example 15], the “% survival” value in assay [5] is 80%.

With `O=C(CSc1ncccc1C(=O)[O-])Nc1ccc(Br)cc1.[K+]` [Example 12], the “% survival” value in assay [6] is on record as 80%.

As for `O=C(CSc1ncccc1C(=O)O)Nc1cc(F)ccc1F` [Example 22, potassium], the inhibition at 100 µg/mL in assay [1] came to 2.7%; in assay [3], 3.2%; in assay [4], 2.1%; at BoNT/F-LC, 3.4%. Moreover, in assay [2], the inhibition at 200 µg/mL was found to be 4.4%.

Take `O=C(CSc1ncccc1C(=O)[O-])Nc1cc(Br)ccc1Br.[K+]` [Example 9]: the “% survival” value in assay [6] is reported as 20%.

Take `O=C(CSc1ncccc1C(=O)[O-])Nc1ccccc1OC(F)(F)F.[K+]` [Example 24, potassium]: the inhibition at 100 µg/mL was determined as 29.3% in assay [1], 8.9% in assay [3], 5.6% in assay [4] and 11.2% at BoNT/F-LC. Also, the inhibition at 200 µg/mL in assay [2] worked out at 13.2%.

Turning to `O=C(CSc1ncccc1C(=O)[O-])Nc1ccc(OC(F)(F)F)cc1.[K+]` [Example 21], the “% survival” value in assay [5] and in assay [6] was 40% each time.

Turning to `COc1ccc(Cl)cc1NC(=O)CSc1cc(C(=O)[O-])ccn1.[K+]` [Example 15, potassium], the inhibition at 100 µg/mL amounted to 19.4% in assay [1], 3% in assay [3], 16.3% in assay [4] and 7.2% on BoNT/F-LC. In assay [2], the inhibition at 200 µg/mL came out at 23.5%.

In the case of `O=C(CSc1ncccc1C(=O)[O-])Nc1cc(Br)ccc1Br.[K+]` [Example 9, potassium], the inhibition at 100 µg/mL is 29.2% in assay [1], 9.3% in assay [3], 8.2% in assay [4] and 12.1% on BoNT/F-LC. In assay [2], the inhibition at 200 µg/mL came to 15.2%.

`O=C(CSc1ncccc1C(=O)[O-])Nc1cc(Cl)ccc1OCc1ccccc1.[K+]` [Example 23]: the “% survival” value came to 100% in assay [5] and 80% in assay [6].

On to `O=C(CSc1ncccc1C(=O)[O-])Nc1cc(OC(F)(F)F)ccc1Br.[K+]` [Example 26], for which, in assay [6], the “% survival” value was found to be 20%.

`COc1ccc(Cl)cc1NC(=O)CSc1ncccc1C(=O)[O-].[K+]` [Example 3]: the Inhibition rate % in assay [1] is listed as 30.2%; in assay [2], 20.2%; in assay [3] it was 11.3%; in assay [4], 16.5%; at BoNT/F-LC it was 19.2%. For the same compound, the “% survival” value in assay [5] was 40%; in assay [6] it was 60%.

As for `O=C(CSc1ncccc1C(=O)[O-])Nc1cccc(Cl)c1.[K+]` [Example 20], the “% survival” value in assay [6] amounted to 0%.

For the compound `COc1cc(Cl)cc(NCC(=O)Sc2ncccc2C(=O)[O-])c1.[Na+]` [Example 4, 2-(2-(3-chloro-5-methoxyanilino)acetylthio)nicotinate sodium], the inhibition at 100 µg/mL came to 95.5% in assay [1], 45.4% in assay [3], 43.2% in assay [4] and 48.6% on BoNT/F-LC. For the same compound, the inhibition at 200 µg/mL in assay [2] stood at 34.5%. The “% survival” value in assay [5] and in assay [6] was 100% in each case.

Turning to `O=C(CSc1ncccc1C(=O)[O-])Nc1ccccc1Cl.[K+]` [Example 8, potassium], the inhibition at 100 µg/mL stood at 35% in assay [1], 25.1% in assay [3], 27.6% in assay [4] and 15.3% on BoNT/F-LC. The inhibition at 200 µg/mL in assay [2] came to 21.1%.

Take `COc1ccc(Cl)c(NC(=O)CSc2ncccc2C(=O)[O-])c1.[K+]` [Example 14, potassium]: the inhibition at 100 µg/mL in assay [1] is 24.2%; in assay [3], 19.8%; in assay [4] it was 13.5%; at BoNT/F-LC, 9.8%. Moreover, in assay [2], the inhibition at 200 µg/mL turned out to be 12.3%.

Regarding `CCOc1ccc(Cl)cc1NC(=O)CSc1ncccc1C(=O)O` [Example 6], the inhibition at 100 µg/mL is 8.6% in assay [1], 14.7% in assay [3], 16.8% in assay [4] and 6.7% at BoNT/F-LC. Moreover, in assay [2], the inhibition at 200 µg/mL is 4.7%.

As to `O=C(CSc1ncccc1C(=O)[O-])Nc1cc(Cl)ccc1OCc1ccccc1.[K+]` [Example 23, sodium], the inhibition at 100 µg/mL in assay [1] was found to be 55.7%; in assay [3], 78%; in assay [4] it was 50.7%; at BoNT/F-LC, 35.8%. In assay [2], the inhibition at 200 µg/mL was determined as 30.3%.

On to `CCOc1ccccc1NC(=O)CSc1ncccc1C(=O)O` [Example 5], for which the inhibition at 100 µg/mL in assay [1] is 4.3%; in assay [3], 2.7%; in assay [4], 6.8%; on BoNT/F-LC it was 5%. The inhibition at 200 µg/mL in assay [2] turned out to be 8%.

For `COc1ccc(OC)c(NC(=O)CSc2ncccc2C(=O)O)c1` [Example 16, potassium], the inhibition at 100 µg/mL came to 20.1% in assay [1], 17.9% in assay [3], 5.2% in assay [4] and 9.8% at BoNT/F-LC. Further, the inhibition at 200 µg/mL in assay [2] came to 16.2%.

On to `O=C(CSc1ncccc1C(=O)[O-])Nc1ccccc1Cl.[K+]` [Example 8], for which the “% survival” value is reported as 80% in assay [5] and 0% in assay [6].

`COc1ccc(Cl)cc1NCC(=O)Sc1ncccc1C(=O)[O-].[Na+]` [Example 1, 2-(2-(5-chloro-2-methoxyanilino)acetylthio)nicotinate sodium]: the inhibition at 100 µg/mL in assay [1] was 27.8%; in assay [3], 8.4%; in assay [4] it was 7.32%; at BoNT/F-LC it was 12.2%. Besides, the inhibition at 200 µg/mL in assay [2] was found to be 12.8%. Besides, the “% survival” value in assay [6] is on record as 40%.

`O=C(CSc1ncccc1C(=O)O)Nc1cccc(OC(F)(F)F)c1` [Example 25, potassium]: the inhibition at 100 µg/mL in assay [1] is 15.2%; in assay [3], 2.9%; in assay [4], 4.3%; at BoNT/F-LC, 3%. In assay [2], the inhibition at 200 µg/mL came out at 5.7%.

With `O=C(CSc1ncccc1C(=O)[O-])Nc1cc(OC(F)(F)F)ccc1Br.[K+]` [Example 26, potassium], the inhibition at 100 µg/mL in assay [1] was 30%; in assay [3], 27.4%; in assay [4], 12.1%; on BoNT/F-LC, 13.1%. In addition, in assay [2], the inhibition at 200 µg/mL stood at 17.1%.

For the compound `O=C(CSc1ncccc1C(=O)[O-])Nc1ccc(Br)cc1.[K+]` [Example 12, potassium], the inhibition at 100 µg/mL in assay [1] worked out at 29.1%; in assay [3], 9.4%; in assay [4], 12.3%; at BoNT/F-LC, 13.2%. Also, in assay [2], the inhibition at 200 µg/mL is 16.4%.

Take `O=C(CSc1ncccc1C(=O)O)Nc1ccccc1` [Example 17, 2-(anilino-2-acetylthio)nicotinic Acid]: the inhibition at 100 µg/mL in assay [1] stood at 3.7%; in assay [3], 15.4%; in assay [4], 18%; at BoNT/F-LC it was 8.3%. The inhibition at 200 µg/mL in assay [2] is 6.4%.

One may read the inhibition as the drop in the measured response relative to a control, in per cent.
